The values below come from US5034391A, “Piperazinylalkyl-3(2H)-pyridazinones and the use thereof as agents lowering blood pressure” (CL Pharma Aktiengesellschaft, priority 1988, dated 1991).

For the experiment, the target named is T1, alpha1 adrenoceptors (Rattus norvegicus, UniProt P15823).
T1 construct: from tissue; host or cells: rat cardiac membranes
T1 sequence (P15823 1-515): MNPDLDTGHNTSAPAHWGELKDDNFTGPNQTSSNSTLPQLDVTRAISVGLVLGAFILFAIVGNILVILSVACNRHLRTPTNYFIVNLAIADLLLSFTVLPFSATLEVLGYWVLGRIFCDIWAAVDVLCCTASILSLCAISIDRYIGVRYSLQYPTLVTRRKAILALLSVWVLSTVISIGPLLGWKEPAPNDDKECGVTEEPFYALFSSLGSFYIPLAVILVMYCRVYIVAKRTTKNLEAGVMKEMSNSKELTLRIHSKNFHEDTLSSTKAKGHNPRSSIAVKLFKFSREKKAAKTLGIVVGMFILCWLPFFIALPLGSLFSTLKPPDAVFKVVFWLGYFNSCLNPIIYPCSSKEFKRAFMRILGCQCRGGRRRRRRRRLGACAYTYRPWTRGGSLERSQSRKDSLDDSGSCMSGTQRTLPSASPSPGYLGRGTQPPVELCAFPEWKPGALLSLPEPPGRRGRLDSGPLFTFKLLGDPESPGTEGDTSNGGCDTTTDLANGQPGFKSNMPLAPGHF
Description: Affinity for alpha1 adrenoceptors: displacement of tritiated prazosin on rat cardiac membranes. The class given is binding. The settings on record: Ki from IC50 by Cheng and Prusoff, read-out: Inhibition constants at alpha-1-adrenoceptor (Ki). The procedure:
The affinity of compounds of the general formula I for alpha1 adrenoceptors was established using the method described by R. S. Williams, D. F. Dukes and […] in J. Cardiovasc. Pharmacol. 3, 522-531 (1981). In this method the competitive displacement of tritiated prazosin (2-(4-(2-furoyl)-1-piperazinyl)-4-amino-6,7-dimethoxy-quinazoline) on rat-cardiac membranes by the test substances is measured, and the IC50 (50% inhibition concentration) is determined as that concentration which brings about a 50% inhibition of the specific binding of tritiated prazosin to the alpha1 adrenoceptors in rat cardiac membranes.
The concentration-independent inhibitor constants K1 -alpha1 were determined from the IC50 values as stated by Y. Cheng and H. W.Prusoff in Biochem. Pharmacol. 22, 3099-3108 (1973).

“And” between values parts separate entries of the source, which are not always exact repeats. Equal values may be shown once.

A word on the Ki: it is a dissociation constant, usually derived from enzyme kinetics or from competition with a known ligand.

As for `Cn1nccc(NCCN2CCN(c3ccccc3F)CC2)c1=O` [2-Methyl-4-((2-(4-(2-fluorophenyl)piperazinyl-1)ethyl)amino) -3(2H)-pyridazinone], the Ki worked out at 21.4 nM.
The value for `COc1ccccc1N1CCN(CCCNc2cc(Cl)n[nH]c2=O)CC1` [6-Chloro-4-((3-(4-(2-methoxyphenyl)piperazinyl-1)propyl)amino)-3(2H)-pyridazinone] was 11 nM.
For the compound `COc1ccccc1N1CCN(CCCCNc2cnn(C)c(=O)c2)CC1` [2-Methyl-5-((4-(4-(2-methoxyphenyl)piperazinyl-1)butyl)amino)-3(2H)-pyridazinone], the Ki is 5.38 nM.
As to `COc1ccccc1N1CCN(CCNc2ccnn(C(C)(C)C)c2=O)CC1` [2-t-Butyl-4-((2-(4-(2-methoxyphenyl)piperazinyl-1)ethyl)amino)-3(2H)-pyridazinone], the inhibition constant (Ki) stood at 60.8 nM.
The value for `COc1cc(C)ccc1N1CCN(CCCNc2cc(Cl)n[nH]c2=O)CC1` [6-Chloro-4-((3-(4-(2-methoxy-4-methylphenyl)piperazinyl-1)propyl)amino)-3(2H)-pyridazinone] was 7.49 nM.
Regarding `CCOc1cc(C)ccc1N1CCN(CCCNc2ccnn(C)c2=O)CC1` [2-Methyl-4-((3-(4-(2-ethoxy-4-methylphenyl)piperazinyl-1)propyl)amino)-3(2H)-pyridazinone], the inhibition constant Ki was 13.6 nM.
Turning to “2-Methyl-4-((2-(4-(2-fluorophenyl)piperazinyl-1)ethyl) amino)-3(2H)-pyridazinone”, the Ki came out at 89.4 nM.
In the case of `COc1ccccc1N1CCN(CCCN(C)c2c(Cl)cnn(C)c2=O)CC1` [2-Methyl-5-chloro-4-(methyl-(3-(4-(2-methoxyphenyl)piperazinyl-1)propyl)amino)-3(2H)-pyridazinone], the Ki amounted to 12.9 nM.
`CCOc1ccccc1N1CCN(CCCNc2cc(Cl)nn(C)c2=O)CC1` [2-Methyl-6-chloro-(3-(4-(4-(2-ethoxyphenyl)piperazinyl-1)propyl)amino)-3(2H)-pyridazinone]: the Ki was 6.5 nM.
Turning to `Cn1ncc(NCCN2CCN(c3ccccc3O)CC2)c(Cl)c1=O` [2-Methyl-4-chloro-5-((2-(4-(2-hydroxyphenyl)piperazinyl-1)ethyl)amino)-3(2H)-pyridazinone], the Ki is 15.4 nM.
With `COc1ccccc1N1CCN(CCCCNc2cc(Cl)n[nH]c2=O)CC1` [6-Chloro-4-((4-(4-(2-methoxyphenyl)-1-piperazinyl)butyl)amino)-3(2H)-pyridazinone], the Ki was determined as 3.34 nM.
Take `COc1ccccc1N1CCN(CCCCNc2ccn[nH]c2=O)CC1` [4-((4-(4-(2-Methoxyphenyl)piperazinyl-1)butyl)amino) -3(2H)-pyridazinone]: the inhibition constant Ki was 4.64 nM.
`COc1ccccc1N1CCN(CCCN(C)c2cnn(C)c(=O)c2Cl)CC1` [2-Methyl-4-chloro-5-(methyl-(3-(4-(2-methoxyphenyl)piperazinyl-1)propyl)amino)-3(2H)-pyridazinone]: the Ki was determined as 3.55 nM.
Take `Cc1ccccc1N1CCN(CCNc2cnn(C)c(=O)c2Cl)CC1` [2-Methyl-4-chloro-5-((2-(4-(2-methylphenyl)piperazinyl-1)ethyl)amino)-3(2H)-pyridazinone]: the Ki amounted to 6.27 nM.
Consider `COc1ccccc1N1CCN(CCNc2c(Cl)cn[nH]c2=O)CC1` [5-Chloro-4-((2-(4-methoxyphenyl)piperazinyl-1)ethyl)amino)-3(2H)-pyridazinone], for which the Ki is 2.95 nM.
On to `CCOc1ccccc1N1CCN(CCNc2ccnn(C)c2=O)CC1` [2-Methyl-4-((2-(4-(2-ethoxyphenyl)piperazinyl-1)ethyl)amino)-3(2H)-pyridazinone], for which the Ki stood at 13.6 nM.
With `COc1ccccc1N1CCN(CCCNc2ccnn(C)c2=O)CC1` [2-Methyl-4-((3-(4-(2-methoxyphenyl)piperazinyl-1)propyl)amino-3(2H)-pyridazinone] the figure was 24.7 nM and 40.5 nM; with `CCOc1cc(C)ccc1N1CCN(CCCNc2c(Cl)cnn(C)c2=O)CC1` [2-Methyl-5-chloro-4-((3-(4-(2-ethoxy-4-methylphenyl)piperazinyl-1)propyl)amino)-3(2H)-pyridazinone], 4.99 nM; with `Cc1ccc(N2CCN(CCCNc3c(Cl)cnn(C)c3=O)CC2)c(O)c1` [2-Methyl-5-chloro-4-((3-(4-(2-hydroxy-4-methylphenyl)piperazinyl-1)propyl)amino)-3(2H)-pyridazinone], 5.34 nM.
Consider `Cn1ncc(Cl)c(NCCN2CCN(c3ccccc3OCc3ccccc3)CC2)c1=O` [2-Methyl-5-chloro-4-((2-(4-(2-benzyloxyphenyl)piperazinyl-1)ethyl)amino)-3(2H)-pyridazinone], for which the Ki stood at 2.54 nM.
`COc1ccccc1N1CCN(CCCCNc2ccnn(C)c2=O)CC1` [2-Methyl-4-((4-(4-(2-methoxyphenyl)piperazinyl-1)butyl)amino)-3(2H)-pyridazinone]: the inhibition constant (Ki) came to 11.8 nM.
For `COc1ccccc1N1CCN(CCNc2ccnn(C)c2=O)CC1` [2-Methyl-4-((2-(4-(2-methoxyphenyl)piperazinyl-1)ethyl)amino)-3(2H)-pyridazinone], the Ki came to 15.7 nM.
As for `CCOc1ccccc1N1CCN(CCNc2cnn(C)c(=O)c2)CC1` [2-Methyl-5-((2-(4-(2-ethoxyphenyl)piperazinyl-1)ethyl)amino)-3(2H)-pyridazinone], the Ki was 103 nM.
With `CCOc1cc(C)ccc1N1CCN(CCCNc2cnn(C)c(=O)c2Cl)CC1` [2-Methyl-4-chloro-5-((3-(4-(2-ethoxy-4-methylphenyl)piperazinyl-1)propyl)yamino)-3(2H)-pyridazinone] the figure was 3.78 nM.
On to `COc1ccccc1N1CCN(CCNc2cc(Cl)n[nH]c2=O)CC1` [6-Chloro-4-((2-(4-(2-methoxyphenyl)piperazinyl-1)ethyl)amino)-3(2H)-pyridazinone], for which the Ki came to 12.8 nM.
Consider `COc1ccccc1N1CCN(CCNc2c(Cl)cnn(CCN(C)C)c2=O)CC1` [2-(2-Dimethylaminoethyl)-5-chloro-4-((2-(4-(2-methoxyphenyl)piperazinyl-1)ethyl)amino)-3(2H)-pyridazinone], for which the Ki came to 15.8 nM.
For `Cc1ccccc1N1CCN(CCCNc2cnn(C)c(=O)c2)CC1` [2-Methyl-4-((3-(4-(2-methylphenyl)piperazinyl-1)propyl)amino)-3(2H)-pyridazinone], the Ki came to 49.3 nM.
Take `Cn1ncc(NCCN2CCN(c3ccccc3O)CC2)cc1=O` [2-Methyl-5-((2-(4-(2-hydroxyphenyl)piperazinyl-1)ethyl)amino)-3(2H)-pyridazinone]: the Ki came out at 65.8 nM.
For the compound `CCN(CCN1CCN(c2ccccc2OC)CC1)c1cnn(C)c(=O)c1Cl` [2-Methyl-4-chloro-5-(ethyl-(2-(4-(2-methoxyphenyl)piperazinyl-1)ethyl)amino)-3(2H)-pyridazinone], the Ki worked out at 37.1 nM.
Regarding `Cc1ccc(N2CCN(CCCNc3cnn(C)c(=O)c3Cl)CC2)c(O)c1` [2-Methyl-4-chloro-5-((3-(4-(2-hydroxy-4-methylphenyl)piperazinyl-1)propyl)amino)-3(2H)-pyridazinone], the Ki was found to be 4.33 nM.
With `COc1ccccc1N1CCN(CCCNc2cc(Cl)nn(CCO)c2=O)CC1` [6-Chloro-2-hydroxyethyl-4-((3-(4-(2-methoxyphenyl)piperazinyl-1)propyl)amino)-3(2H)-pyridazinone] the figure was 9.6 nM; with `Cn1ncc(Cl)c(NCCCN2CCN(c3ccccc3F)CC2)c1=O` [2-Methyl-5-chloro-4-((3-(4-(2-fluorophenyl)piperazinyl-1)propyl)amino)-3(2H)-pyridazinone], 4.89 nM.
